Measurements: article PMC12081029, “Structural, Spectroscopic, and Docking Analysis of N,O‐Donor Ligand Metal Complex Nanoparticles With Hypolipidemic Effects via Lipoprotein Lipase Activation in High‐Fat Diet Mice” (Chemistry & Biodiversity, 2024)
Where “and” joins values, the source holds several entries; their conditions need not be identical. Identical values can stand only once. Like-named read-outs stand apart in the source and are kept apart here.

How the values were obtained:
Escherichia coli [1] = assay: Agar diffusion, inhibition zone (ZOI) and activity index; conditions: for ZOI: 10^−3 M in DMF, 5 mm holes, 20 h at 37°C
Bacillus subtilis [2] = assay: as above; conditions: for ZOI: 10^−3 M in DMF, 5 mm holes, 20 h at 37°C
Aspergillus terreus [3] = assay: as above; conditions: for ZOI: 10^−3 M in DMF, 5 mm holes, 7 days at 30°C; for AI: ZOI of compound / ZOI of standard (colitrimazole) × 100
[4] = Serum liver function enzymes in high-fat diet mice; type: in vivo; conditions: HFD C57BL/6 mice, 4 mg kg^−1 body weight, 3 months, mean ± SD
Procedure: (§1) This study employed 8‐week‐old male C57BL/6 mice of matched weight (around 20–25 g) from an inbred “genetically identical” strain. The mice were purchased from the National Research Center's Animal House. Then, they were subdivided into five groups, each group containing eight mice; four groups were treated with CETZ.2HCl (antihistamine drug) and its metal complexes, whereas one group was left untreated and classified as a control group. Animals were housed in modular plastic veterinary cages at air‐conditioned room, under pathogen‐free conditions. Mice were fed HFD, which consisted of carbs 42.0%, fat 23.0%, protein 17.0%, fiber 3.0%, minerals 5.0%, and moisture 10.0% for 3 months, together with administration of either CETZ.2HCl or its metal complexes (4 mg kg ^−1 body weight) in DMF [37]. Experiments were performed in accordance with the regulations of the Animal Care and Use Committee of the College of Veterinary Medicine, Mansoura University (MU‐ACUC), Egypt; MU‐ACUC (PHARM.R.24.02.30), complied with “Guide for the Care and Use of Laboratory Animals” (National Research Council publication 8th ed., USA, 2011).
(§2) Specimens of blood were gathered from the retro‐orbital sinus, under halothane (1.5 percent v/v halothane in oxygen) anesthesia via inhalation. The collected blood was allowed to clot, by centrifugation at 1600 rpm for 20 min, to obtain serum. Isolated sera were maintained at −80°C until tests of liver function in addition to lipid profiles were performed. For estimation of L. lipase activity, fluorometric L. lipase activity assay kit was utilized following the manufacturer's protocol (Cat. No. STA‐610, Cell BIOLABS INC., San Diego, USA). Serum T. chol. LDL, HDL, TG, ALT (alanine aminotransferase), AST (aspartate aminotransferase), and ALP (alkaline phosphatase) were examined with Roche kits using COBAS Integra 400 and COBAS Integra‐400 plus (Roche Diagnostics Limited, Switzerland).

Aspergillus niger [5] = assay: MIC determination
Aspergillus niger [6] = assay: Agar diffusion, inhibition zone (ZOI) and activity index; conditions: for ZOI: 10^−3 M in DMF, 5 mm holes, 7 days at 30°C
Staphylococcus aureus [7] = assay: as above; conditions: for ZOI / AI: Staphylococcus aureus; for ZOI: 10^−3 M in DMF, 5 mm holes, 20 h at 37°C; for AI: ZOI of compound / ZOI of standard (ampicillin) × 100
[8] = tested on: lipoprotein lipase (L. lipase); assay: Serum L. lipase activity in high-fat diet mice (fluorometric kit); type: in vivo; conditions: HFD C57BL/6 mice; for L. lipase (serum enzyme activity): 4 mg kg^−1 body weight in DMF, 3 months, mean ± SD; for mean L. lipase activity: rounded, 4 mg kg^−1 body weight
Procedure: as §1, §2

[9] = Serum lipid profile in high-fat diet mice; type: in vivo; conditions: HFD C57BL/6 mice, 4 mg kg^−1 body weight, 3 months, mean ± SD
Procedure: as §1, §2

Bacillus subtilis [10] = assay: MIC / MBC determination
Escherichia coli [11] = assay: MIC / MBC determination
Aspergillus terreus [12] = assay: MIC determination
Salmonella typhi [13] = assay: Agar diffusion, inhibition zone (ZOI) and activity index; type: cell-based; conditions: for ZOI: 10^−3 M in DMF, 5 mm holes, 20 h at 37°C
Staphylococcus aureus [14] = assay: MIC / MBC determination
Salmonella typhi [15] = assay: MIC / MBC determination; type: cell-based; conditions: Salmonella typhi
Bacillus subtilis [16] = conditions: cited from earlier work; for Bacillus subtillis (inhibition zone): in mm
Escherichia coli [17] = conditions: cited from earlier work; for Escherichia coli (inhibition zone): in mm
Staphylococcus aureus [18] = conditions: cited from earlier work; for Staphylococcus aureus (inhibition zone): in mm
[19] = Escherichia coli, ZOI of compound / ZOI of standard (gentamicin) × 100
[20] = Bacillus subtilis, ZOI of compound / ZOI of standard (ampicillin) × 100
[21] = Aspergillus niger, ZOI of compound / ZOI of standard (colitrimazole) × 100
[22] = Salmonella typhi, ZOI of compound / ZOI of standard (gentamicin) × 100
[23] = Table 9, preceding research ref [9]
[24] = Table 9, preceding research ref [7]
[25] = Table 9, preceding research ref [11]

Compound | ZOI (Escherichia coli [1]; Escherichia coli) | AI (Escherichia coli [1]; [19]) | ZOI (Bacillus subtilis [2]; Bacillus subtilis) | AI (Bacillus subtilis [2]; [20]) | ZOI (Aspergillus terreus [3]) | AI (Aspergillus terreus [3]) | ALP [4] | ALT [4] | AST [4] | L. lipase (serum enzyme activity) [8] | mean L. lipase activity [8] | HDL [9] | LDL [9] | Total Chol. [9] | Trig [9] | MIC (Bacillus subtilis [10]) | MBC (Escherichia coli [11]) | MIC (Escherichia coli [11]) | MIC (Aspergillus terreus [12]) | ZOI (Salmonella typhi [13]; Salmonella typhi) | further results
[Zn(CETZ)(Phen)(H2O)2Cl] [complex (2)] | 7.9^NS ±0.34 mm | 40.5% | 21.2 ^+ ^2 ±1.04 mm | 74.65% | 12.0^NS ±1.71 mm | 68.57% | 49.63 ± 6.16 U L^−1 | 164.87 ± 35.27 U L^−1 | 156.5 ± 16.12 U L^−1 | 108.88 U/L | 108.9 U L^−1 | 115.75 ± 13.32 mg/dL | 71.63 ± 6.5 mg/dL | 155.5 ± 16.01 mg/dL | 70.63 ± 6.05 mg/dL | 0.050 ± 0.01 µg/mL | 0.063 ± 0.015 µg/mL | 0.050 µg/mL and 0.050 ± 0.02 µg/mL | 0.050 µg/mL and 0.050 ± 0.02 µg/mL | 18.0 ^+ ^2 ±0.17 mm | MIC (Aspergillus niger [5]): 0.025 µg/mL and 0.025 ± 0.01 µg/mL; ZOI (Aspergillus niger [6]; Aspergillus niger): 17.6 ^+ ^1 ±0.43 mm; AI (Aspergillus niger [6]; [21]): 88.88%; ZOI (Staphylococcus aureus [7]): 15.2 ^+ ^1 ±0.74 mm; AI (Staphylococcus aureus [7]): 66.9%; L. lipase (serum enzyme activity) ([8]; listed as Zn-CETZ Complex): 108.88±20.0 U/L; AI (Salmonella typhi [13]; [22]): 86.9%; MBC (Staphylococcus aureus [14]): 0.057 µg/mL and 0.057 ± 0.002 µg/mL; MIC (Staphylococcus aureus [14]): 0.050 µg/mL and 0.050 ± 0.007 µg/mL; MBC (Salmonella typhi [15]): 0.065 ± 0.014 µg/mL; MIC (Salmonella typhi [15]): 0.050 µg/mL and 0.050 ± 0.007 µg/mL
O.O.O=C([O-])COCCN1CCN(C(c2ccccc2)c2ccc(Cl)cc2)CC1.O=[N+]([O-])[O-].[Cu+2].c1cnc2c(c1)ccc1cccnc12 (stereo not drawn) [complex (1), [Cu(CETZ)(Phen)(H2O)2(NO3)]] | 32.5 ^+ ^3 ±0.30 mm | 166.6% | 23.3 ^+ ^2 ± 0.66 mm | 82.04% | 10.5^NS ±1.06 mm | 60.0% | 88 ± 12.64 U L^−1 | 228.63 ± 50.57 U L^−1 | 274.63 ± 36.40^NS U L^−1 | 127.88 U/L | 127.9 U L^−1 | 80.75 ± 8.26 mg/dL | 60.5 ± 5.78 mg/dL | 138.88 ± 10.92 mg/dL | 77.25 ± 9.3 mg/dL | 0.050 ± 0.007 µg/mL | 0.15 0.02 µg mL^−1 | 0.1 ± 0.006 µg/mL | 0.075 µg/mL and 0.075 ± 0.005 µg/mL | 30.0 ^+ ^3 ±0.10 mm | AI (Escherichia coli [1]; Table 9, Escherichia coli, this work): 113.3; Escherichia coli (inhibition zone) (Escherichia coli [1]; Table 9, this work): 32.5 ^+ ^3 ± 0.30; AI (Bacillus subtilis [2]; Table 9, Bacillus subtillis, this work): 55.3; Bacillus subtillis (inhibition zone) (Bacillus subtilis [2]; Table 9, this work): 23.3 ^+ ^2 ± 0.66; MIC (Aspergillus niger [5]): 0.050 µg/mL and 0.050 ± 0.02 µg/mL; ZOI (Aspergillus niger [6]; Aspergillus niger): 13.1^NS ±0.38 mm; AI (Aspergillus niger [6]; [21]): 66.16%; AI (Aspergillus niger [6]; Table 9, Aspergillus niger, this work): 88.89; Aspergillus niger (inhibition zone) (Aspergillus niger [6]; Table 9, this work): 13.1^NS ± 0.38; ZOI (Staphylococcus aureus [7]): 17.3 ^+ ^2 ±0.33 mm; AI (Staphylococcus aureus [7]): 76.2%; Staphylococcus aureus (inhibition zone) (Staphylococcus aureus [7]; Table 9, this work): 17.3 ^+ ^2 ± 0.33; L. lipase (serum enzyme activity) ([8]; listed as Cu-CETZ Complex): 127.88±11.72 U/L; AI (Salmonella typhi [13]; [22]): 144.9%; AI (Salmonella typhi [13]; Table 9, Salmonella typhi, this work): 59.9; Salmonella typhi (inhibition zone) (Salmonella typhi [13]; Table 9, this work): 30.0 ^+ ^3 ± 0.10; MBC (Staphylococcus aureus [14]): 0.086 µg/mL and 0.086 ± 0.004 µg/mL; MIC (Staphylococcus aureus [14]): 0.075 µg/mL and 0.075 ± 0.03 µg/mL; MBC (Salmonella typhi [15]): 0.081 ± 0.01 µg/mL; MIC (Salmonella typhi [15]): 0.075 µg/mL and 0.075 ± 0.006 µg/mL
O.O.O.O=C([O-])COCCN1CCN(C(c2ccccc2)c2ccc(Cl)cc2)CC1.O=C([O-])COCCN1CCN(C(c2ccccc2)c2ccc(Cl)cc2)CC1.[Cu+2] (stereo not drawn) [[Cu(CETZ)2(H2O)2].H2O] |  |  |  |  |  |  |  |  |  |  |  |  |  |  |  |  |  |  |  |  | Bacillus subtillis (inhibition zone) (Bacillus subtilis [16]; [23]): 18.31 ± 0.55; Escherichia coli (inhibition zone) (Escherichia coli [17]; [23]): 13.43 ± 0.39; Staphylococcus aureus (inhibition zone) (Staphylococcus aureus [18]; [23]): 15.21 ± 0.46
CC(N)C(=O)[O-].O.O=C([O-])COCCN1CCN(C(c2ccccc2)c2ccc(Cl)cc2)CC1.[Cu+2] (stereo not drawn) [[Cu(CETZ)(Ala)(H2O)]] |  |  |  |  |  |  |  |  |  |  |  |  |  |  |  |  |  |  |  |  | AI (Bacillus subtilis [16]; Table 9, Bacillus subtillis ref [7]): 42.9; Bacillus subtillis (inhibition zone) (Bacillus subtilis [16]; [24]): 13.9 ± 0.3; AI (Escherichia coli [17]; Table 9, Escherichia coli ref [7]): 52.91; Escherichia coli (inhibition zone) (Escherichia coli [17]; [24]): 11.8 ± 0.5; AI (Staphylococcus aureus [18]; Table 9, Staphylococcus aureus ref [7]): 56.93; Staphylococcus aureus (inhibition zone) (Staphylococcus aureus [18]; [24]): 15.6 ± 0.4
[Cu(AMBI)(CETZ)(NO3)(H2O)2] |  |  |  |  |  |  |  |  |  |  |  |  |  |  |  |  |  |  |  |  | AI (Bacillus subtilis [16]; Table 9, Bacillus subtillis ref [11]): 89.2; Bacillus subtillis (inhibition zone) (Bacillus subtilis [16]; [25]): 28.9 ± 0.3; AI (Escherichia coli [17]; Table 9, Escherichia coli ref [11]): 95.10; Escherichia coli (inhibition zone) (Escherichia coli [17]; [25]): 21.3 ± 0.4; AI (Staphylococcus aureus [18]; Table 9, Staphylococcus aureus ref [11]): 96.72; Staphylococcus aureus (inhibition zone) (Staphylococcus aureus [18]; [25]): 26.5 ± 0.6
O.c1cnc2c(c1)ccc1cccnc12 [Phen.H2O, 1,10‐phenanthroline monohydrate] |  |  | 1.1 ± 0.16 mm | 3.87% |  |  |  |  |  |  |  |  |  |  |  | 0.025 µg/mL and 0.025 ± 0.03 µg/mL |  |  |  |  | MBC (Bacillus subtilis [10]): 0.032 µg/mL
CC(=O)[O-].O.O.O=C([O-])COCCN1CCN(C(c2ccccc2)c2ccc(Cl)cc2)CC1.[Cd+2].c1cnc2c(c1)ccc1cccnc12 (stereo not drawn) [complex (3), [Cd(CETZ)(Phen)(H2O)2(CH3COO)]] | 28.5 ^+ ^2 ±0.83 mm | 146.1% | 32.0 ^+ ^3 ±0.68 mm | 112.68% | 14.7 ^+ ^1 ±0.55 mm | 84.0% | 123.63 ± 11.45 U L^−1 | 283.75 ± 23.49 U L^−1 | 374.88 ± 36.33 U L^−1 | 52.38 U/L | 52.4 U L^−1 | 44.63 ± 12.92 mg/dL | 89.25 ± 9.45 mg/dL | 283.75 mg/dL | 188.75 mg/dL | 0.075 ± 0.006 µg/mL | 0.23 ± 0.053 µg/mL | 0.1 ± 0.02 µg/mL | 0.100 µg/mL and 0.1 ± 0.01 µg/mL | 19.5 ^+ ^2 ±0.85 mm | L. lipase (serum enzyme activity) ([8]; listed as Cd-CETZ Complex): 52.38±9.6 U/L; AI (Salmonella typhi [13]; [22]): 94.2%; MBC (Salmonella typhi [15]): 0.066 ± 0.014 µg/mL; MIC (Salmonella typhi [15]): 0.050 µg/mL and 0.050 ± 0.01 µg/mL
